# Structures can show the parent of a compound that is named as a salt. Where two headings read alike, the source gives them in different places.
# Experiment: Solubility of bendamustine HCl in organic solvents (T0 assay after overnight rolling and filtration)
# Format: physicochemical
# Procedure: An initial study was performed to assess bendamustine HCl solubility and brief stability in various organic solvents. Amounts of approximately 415.4 mg bendamustine HCl API (active pharmaceutical ingredient) were weighed into 4 mL amber glass vials. 2 mL of each indicated test solvent was added to two of each of the vials. One of each set of two vials containing the same solvent was placed on a sample roller at 2-8° C., and the other vial in each set was placed on a sample roller at laboratory temperature overnight. The following day, the solution from each vial was filtered through a Pall, 0.2 μm Fluorodyne II (Hydrophilic modified PVDF) syringe filter into a fresh 4 mL amber glass vial.
smiles,measurement,setting,value
"Cn1c(CCCC(=O)O)nc2cc(N(CCCl)CCCl)ccc21 [Bendamustine HCl, 1H-benzimidazole-2-butanoic acid, 5-[bis(2-chloroethyl)amino]-1-methyl, monohydrochloride]",solubility,"2 °C, organic solvent or mixture, thermodynamic from solid, 1-methyl-2-pyrrolidinone, 2-8° C., read-out: Solubility",181 mg/mL
same,solubility,"2 °C, organic solvent or mixture, thermodynamic from solid, Absolute Ethanol, 2-8° C., read-out: Solubility",52.1 mg/mL
same,solubility,"2 °C, organic solvent or mixture, thermodynamic from solid, Benzyl alcohol, 2-8° C., read-out: Solubility",177 mg/mL
same,solubility,"2 °C, organic solvent or mixture, thermodynamic from solid, Dimethyl acetamide (EP)-Finar, 2-8° C., read-out: Solubility",180 mg/mL
same,solubility,"2 °C, organic solvent or mixture, thermodynamic from solid, Dimethyl acetamide (EP)-Panreac, 2-8° C., read-out: Solubility",182 mg/mL
same,solubility,"2 °C, organic solvent or mixture, thermodynamic from solid, Dimethyl acetamide (high purity)-Finar, 2-8° C., read-out: Solubility",178 mg/mL
same,solubility,"2 °C, organic solvent or mixture, thermodynamic from solid, Dimethyl sulfoxide, 2-8° C., read-out: Solubility",182 mg/mL
same,solubility,"2 °C, organic solvent or mixture, thermodynamic from solid, PEG 300, 2-8° C., read-out: Solubility",60.2 mg/mL
same,solubility,"2 °C, organic solvent or mixture, thermodynamic from solid, PEG 400, 2-8° C., read-out: Solubility",32.8 mg/mL
same,solubility,"2 °C, organic solvent or mixture, thermodynamic from solid, Propylene glycol (USP)-Croda, 2-8° C., read-out: Solubility",154 mg/mL
same,solubility,"2 °C, organic solvent or mixture, thermodynamic from solid, Propylene glycol (USP)-Dow, 2-8° C., read-out: Solubility",154 mg/mL
same,solubility,"2 °C, organic solvent or mixture, thermodynamic from solid, Propylene glycol (USP)-Merck, 2-8° C., read-out: Solubility",159 mg/mL
same,solubility,"2 °C, organic solvent or mixture, thermodynamic from solid, Propylene glycol, 2-8° C., read-out: bendamustine HCl solubility",~155 mg/mL
same,solubility,"Isopropyl alcohol, 2-8° C.",4.5 mg/mL
same,solubility,"PEG 300, organic solvent or mixture, thermodynamic from solid, read-out: bendamustine HCl solubility",~60 mg/mL
same,solubility,"PEG 400, organic solvent or mixture, thermodynamic from solid, read-out: bendamustine HCl solubility",~30 mg/mL
same,solubility,"Propylene glycol (USP)-Croda, 23° C.",170.3 mg/mL
same,solubility,"ethanol, organic solvent or mixture, thermodynamic from solid, read-out: bendamustine HCl solubility",50 to 60 mg/mL
same,solubility,"isopropyl alcohol, organic solvent or mixture, thermodynamic from solid, read-out: bendamustine HCl solubility",~5 mg/mL
same,solubility,"organic solvent or mixture, thermodynamic from solid, 1-methyl-2-pyrrolidinone, 23° C., read-out: Solubility",180 mg/mL
same,solubility,"organic solvent or mixture, thermodynamic from solid, 1-methyl-2-pyrrolidinone, both temperatures tested, API completely dissolved, read-out: bendamustine HCl solubility",> 180 mg/mL
same,solubility,"organic solvent or mixture, thermodynamic from solid, Absolute Ethanol, 23° C., read-out: Solubility",61.1 mg/mL
same,solubility,"organic solvent or mixture, thermodynamic from solid, Benzyl alcohol, 23° C., read-out: Solubility",174 mg/mL
same,solubility,"organic solvent or mixture, thermodynamic from solid, Benzyl alcohol, both temperatures tested, API completely dissolved, read-out: bendamustine HCl solubility",> 180 mg/mL
same,solubility,"organic solvent or mixture, thermodynamic from solid, Dimethyl acetamide (EP)-Finar, 23° C., read-out: Solubility",174 mg/mL
same,solubility,"organic solvent or mixture, thermodynamic from solid, Dimethyl acetamide (EP)-Panreac, 23° C., read-out: Solubility",180 mg/mL
same,solubility,"organic solvent or mixture, thermodynamic from solid, Dimethyl acetamide (high purity)-Finar, 23° C., read-out: Solubility",179 mg/mL
same,solubility,"organic solvent or mixture, thermodynamic from solid, Dimethyl sulfoxide, 23° C., read-out: Solubility",181 mg/mL
same,solubility,"organic solvent or mixture, thermodynamic from solid, Isopropyl alcohol, 23° C., read-out: Solubility",6.7 mg/mL
same,solubility,"organic solvent or mixture, thermodynamic from solid, PEG 300, 23° C., read-out: Solubility",64.5 mg/mL
same,solubility,"organic solvent or mixture, thermodynamic from solid, PEG 400, 23° C., read-out: Solubility",34.4 mg/mL
same,solubility,"organic solvent or mixture, thermodynamic from solid, Propylene glycol (USP)-Dow, 23° C., read-out: Solubility",166 mg/mL
same,solubility,"organic solvent or mixture, thermodynamic from solid, Propylene glycol (USP)-Merck, 23° C., read-out: Solubility",172 mg/mL
same,solubility,"organic solvent or mixture, thermodynamic from solid, Propylene glycol, 23° C., read-out: bendamustine HCl solubility",~170 mg/mL
same,solubility,"organic solvent or mixture, thermodynamic from solid, dimethyl acetamide, both temperatures tested, API completely dissolved, read-out: bendamustine HCl solubility",> 180 mg/mL
same,solubility,"organic solvent or mixture, thermodynamic from solid, dimethyl sulfoxide, both temperatures tested, API completely dissolved, read-out: bendamustine HCl solubility",> 180 mg/mL
